Consider 17 compounds from ChEMBL document CHEMBL3272202, “Synthesis and pharmacological activity of some N-alkyl-substituted 9alpha-ethyl-2'-hydroxy-5-methyl-6,7-benzomorphans” (J Med Chem, 1977).

For data set [1], the system named is Rhesus monkey. The data set can be described thus: Narcotic antagonist activity in morphine-dependent monkey by precipitated withdrawl test. In kind it is functional, organism-based. Particulars: Macaca mulatta.
Data set [2] has as its system Rhesus monkey. Nature of the data set: Narcotic antagonist activity in morphine-dependent monkey by single dose suppression test. It is filed as functional, organism-based. Particulars: Macaca mulatta.
Data set [3] relates to Mus musculus. Nature of the data set: Narcotic analgesic activity in mouse assessed as suppression of phenylquinone-induced writhing at 30 mg/kg, sc relative to control. It is filed as functional. Particulars: route subcutaneous.
Data set [4] has as its system Rattus norvegicus. The data set can be described thus: Narcotic antagonist activity in rat at 30 mg/kg, sc by tail-flick test relative to control. In kind it is functional.
Data set [5] concerns Rattus norvegicus. The data set can be described thus: Narcotic analgesic activity in rat at 30 mg/kg, sc by tail-flick test relative to control. It is filed as functional.
The test system of data set [6] is Mus musculus. The data set can be described thus: Narcotic analgesic activity in sc dosed mouse by hot-plate test. It is filed as functional.
Data set [7] relates to Rhesus monkey. The data set can be described thus: Toxicity in morphine-dependent monkey assessed as morphine substitution measured during precipitated withdrawl test. It is filed as organism-based, Macaca mulatta. Particulars: in vivo.
In data set [8] the test system is Rattus norvegicus. Nature of the data set: Narcotic antagonist activity in rat at 1 to 10 mg/kg, sc by tail-flick test. In kind it is functional, organism-based.
Data set [9] relates to Rattus norvegicus. The data set can be described thus: Narcotic analgesic activity in sc dosed rat by tail-flick test. It is filed as functional.
Data set [10] relates to Mus musculus. The data set can be described thus: Narcotic analgesic activity in sc dosed mouse assessed as suppression of phenylquinone-induced writhing. It is filed as functional.
The test system of data set [11] is Rhesus monkey. The data set can be described thus: Toxicity in morphine-dependent monkey assessed as morphine substitution measured during single dose suppression test. In kind it is organism-based, Macaca mulatta. Particulars: in vivo.
Data set [12] deals with Rattus norvegicus. Nature of the data set: Narcotic antagonist activity in sc dosed rat by tail-flick test. It is filed as functional.
The test system of data set [13] is Mus musculus. Nature of the data set: Narcotic analgesic activity in mouse assessed as suppression of phenylquinone-induced writhing at 10 mg/kg, sc relative to control. In kind it is functional. Particulars: route subcutaneous.
The test system of data set [14] is Mus musculus. Nature of the data set: Toxicity in mouse assessed as hyperactivity at 3 to 10 mg/kg, sc. It is filed as organism-based. Particulars: in vivo. Further details: dose 3-10 mg/kg, route subcutaneous.
Data set [15] concerns Mus musculus. Nature of the data set: Toxicity in mouse assessed as ataxia at 3 to 10 mg/kg, sc. In kind it is organism-based. Further details: dose 3-10 mg/kg, route subcutaneous. Particulars: in vivo.
Data set [16] concerns Mus musculus. The data set can be described thus: Narcotic analgesic activity in mouse at 10 to 40 mg/kg, sc by Nilsen test. In kind it is functional, organism-based.
The test system of data set [17] is Mus musculus. Nature of the data set: Narcotic analgesic activity in mouse at 20 mg/kg, sc by Nilsen test. It is filed as functional, organism-based. Further details: dose 20 mg/kg.
Data set [18] has as its system Mus musculus. The data set can be described thus: Toxicity in mouse at 50 mg/kg, sc. In kind it is organism-based. Further details: dose 50 mg/kg, route subcutaneous. Particulars: in vivo.
The subject of data set [19] is Mus musculus. The data set can be described thus: Narcotic analgesic activity in mouse at 50 mg/kg by hot-plate test. In kind it is functional, organism-based. Further details: dose 50 mg/kg.
In data set [20] the test system is Rhesus monkey. The data set can be described thus: Toxicity in morphine-dependent monkey assessed as morphine substitution at 2.5 to 20 mg/kg measured during precipitated withdrawl test. It is filed as organism-based, Macaca mulatta. Further details: dose 2.5-20 mg/kg. Particulars: in vivo.
Data set [21] deals with Rhesus monkey. The data set can be described thus: Toxicity in morphine-dependent monkey assessed as morphine substitution at 2.5 to 20 mg/kg measured during single dose suppression test. It is filed as organism-based, Macaca mulatta. Further details: dose 2.5-20 mg/kg. Particulars: in vivo.
The subject of data set [22] is Mus musculus. Nature of the data set: Narcotic analgesic activity in mouse at 20 to 50 mg/kg, sc by hot-plate test. In kind it is functional, organism-based.
The test system of data set [23] is Rhesus monkey. Nature of the data set: Toxicity in morphine-dependent monkey assessed as convulsion. It is filed as organism-based, Macaca mulatta. Particulars: in vivo.
The subject of data set [24] is Mus musculus. Nature of the data set: Narcotic analgesic activity in mouse at 50 mg/kg, sc by Nilsen test. In kind it is functional, organism-based. Further details: dose 50 mg/kg.
The subject of data set [25] is Mus musculus. The data set can be described thus: Narcotic analgesic activity in mouse at 100 mg/kg, sc by hot-plate test. Further details: dose 100 mg/kg. In kind it is functional, organism-based.
Data set [26] deals with Rhesus monkey. The data set can be described thus: Toxicity in morphine-dependent monkey assessed as precipitation of abstinence signs. It is filed as organism-based, Macaca mulatta. Particulars: in vivo.
The test system of data set [27] is Rhesus monkey. Nature of the data set: Toxicity in morphine-dependent monkey assessed as depression of central nervous system. It is filed as organism-based, Macaca mulatta. Particulars: in vivo.
Data set [28] concerns Rhesus monkey. Nature of the data set: Toxicity in morphine-dependent monkey assessed as motor incoordination. It is filed as organism-based, Macaca mulatta. Particulars: in vivo.
In data set [29] the test system is Mus musculus. The data set can be described thus: Narcotic analgesic activity in sc dosed mouse by Nilsen test. In kind it is functional.
Data set [30] relates to Mus musculus. Nature of the data set: Narcotic analgesic activity in mouse at 5 to 10 mg/kg, sc by Nilsen test. In kind it is functional, organism-based.
Data set [31] deals with Mus musculus. The data set can be described thus: Toxicity in mouse at 5 to 10 mg/kg, sc. Particulars: in vivo. It is filed as organism-based. Further details: dose 5-10 mg/kg, route subcutaneous.
The test system of data set [32] is Rattus norvegicus. Nature of the data set: Narcotic antagonist activity in rat at 10 mg/kg, sc by tail-flick test. In kind it is functional. Further details: scale not given: the % may be the effect or the level left.
Data set [33] has as its system Rhesus monkey. The data set can be described thus: Toxicity in morphine-dependent monkey assessed as depression of central nervous system in presence of nalorphine. It is filed as organism-based, Macaca mulatta. Particulars: in vivo.
Data set [34] has as its system Rhesus monkey. The data set can be described thus: Toxicity in morphine-dependent monkey assessed as depression of central nervous system in presence of naloxone. In kind it is organism-based, Macaca mulatta. Particulars: in vivo.

Calls of active or inactive are those of the source. No cut-off for these calls is given here.

Turning to `C=CCN1CC[C@]23c4c5ccc(O)c4O[C@H]2C(=O)CC[C@@]3(O)[C@H]1C5`, the outcome in data set [1] and in [2] was Active.
Regarding `CC[C@H]1[C@H]2Cc3ccc(O)cc3[C@@]1(C)CCN2` (racemic), the inhibition in vivo at 30 mg/kg in [3] was determined as 45%; in [5] (route subcutaneous), 37%. The outcome in data set [4] was inactive. In addition, the ED50 entry in data set [6] is “inactive”.
For the compound `CC[C@H]1[C@H]2Cc3ccc(O)cc3[C@@]1(C)CCN2C` (racemic), the Activity entry in data set [7] and in data set [11] was “Toxic” in each case. In [8], the result was inactive. Also, the results for the ED50 in [9], in data set [10] and in data set [6] were 6.4 mg/kg, 0.2 mg/kg and 1.3 mg/kg, respectively.
For `CC[C@H]1[C@H]2Cc3ccc(O)cc3[C@@]1(C)CCN2CC` (racemic), the ED50 result in [9] is “inactive”. Also, the inhibition in vivo at 30 mg/kg in data set [3] was 27%. The same compound had an ED50 in data set [6] of 21.3 mg/kg. This compound yielded an AD50 in data set [12] of 5.5 mg/kg.
In the case of `CCCN1CC[C@]2(C)c3cc(O)ccc3C[C@@H]1[C@@H]2CC` (racemic), the ED50 result in data set [9] and in data set [6] was “inactive” in each case. For the same compound, the results for the Activity in data set [13], in [14] and in [15] were 55%, “Toxic” and “Toxic”, respectively. In addition, in data set [16], the outcome was inactive. The AD50 in data set [12] came to 0.7 mg/kg.
`CCCCN1CC[C@]2(C)c3cc(O)ccc3C[C@@H]1[C@@H]2CC` (racemic): the ED50 in [10] turned out to be 13 mg/kg. Further, the outcome in data set [17] and in data set [19] was inactive. The inhibition entry in [5] is “inactive”. Also, in [6], the ED50 result was “inactive”. Further, in data set [18], the Activity result is listed as “Toxic”. The same compound had an AD50 in data set [12] of 2.38 mg/kg.
Turning to `CCCCCN1CC[C@]2(C)c3cc(O)ccc3C[C@@H]1[C@@H]2CC` (racemic), the ED50 in data set [9] is 28.1 mg/kg; in data set [10], 1.8 mg/kg; in data set [6], 4.2 mg/kg. For the same compound, the Activity in [4] (route subcutaneous) was determined as 39%. Also, in [12], the AD50 result is “inactive”.
Consider `CCCCCCN1CC[C@]2(C)c3cc(O)ccc3C[C@@H]1[C@@H]2CC` (racemic), for which the ED50 in data set [9] was 18.7 mg/kg; in [10], 5.7 mg/kg; in [6], 6.2 mg/kg. Further, the Activity result in data set [20] and in [21] was “Non-toxic” throughout. Besides, in [4], the outcome was inactive.
With `CCCCCCCN1CC[C@]2(C)c3cc(O)ccc3C[C@@H]1[C@@H]2CC` (racemic), the ED50 in data set [9] turned out to be 14 mg/kg; in [10], 7.3 mg/kg; in data set [6], 9.9 mg/kg. In addition, the AD50 result in data set [12] was “inactive”.
Take `CCCCCCCCN1CC[C@]2(C)c3cc(O)ccc3C[C@@H]1[C@@H]2CC` (racemic): the ED50 entry in [9] and in data set [6] was “inactive” throughout. Further, the ED50 in data set [10] came out at 15.1 mg/kg. In addition, the AD50 entry in [12] is “inactive”.
On to `C=CCN1CC[C@]2(C)c3cc(O)ccc3C[C@@H]1[C@@H]2CC` (racemic), for which the ED50 in [10] was determined as 15.7 mg/kg. Besides, the result in data set [1] and in data set [2] was Active. In addition, the result in data set [22] was inactive. The inhibition result in data set [5] is “inactive”. Besides, the AD50 in data set [12] turned out to be 0.6 mg/kg.
With `C=CCCCN1CC[C@]2(C)c3cc(O)ccc3C[C@@H]1[C@@H]2CC` (racemic), the Activity result in data set [23], in data set [26], in data set [27] and in [28] was “Toxic” each time. Also, the result in data set [24] and in data set [25] was inactive. The ED50 in [10] was 2.56 mg/kg. Further, the inhibition entry in data set [5] is “inactive”. The AD50 in data set [12] worked out at 1.18 mg/kg.
For the compound `CC[C@H]1[C@H]2Cc3ccc(O)cc3[C@@]1(C)CCN2CC=C(C)C` (racemic), in data set [9], the ED50 result was “inactive”. Further, the Activity in data set [13] is recorded as 36%. The ED50 in data set [6] was 8.9 mg/kg; in data set [29], 26.8 mg/kg. The AD50 in data set [12] stood at 3.1 mg/kg.
In the case of `CC[C@H]1[C@H]2Cc3ccc(O)cc3[C@@]1(C)CCN2CC1CC1` (racemic), the result in data set [30] was inactive. In [10], the ED50 is 2.1 mg/kg. Further, the Activity result is on record as “Toxic” in [31] and 12% in data set [32] (route subcutaneous). The result in data set [1] and in data set [2] was Active. Also, in data set [6], the ED50 entry is “inactive”. In data set [12], this compound had an AD50 of 0.19 mg/kg.
With `CC[C@H]1[C@H]2Cc3ccc(O)cc3[C@@]1(C)CCN2CC1CCC1` (racemic), the ED50 was 0.31 mg/kg in data set [10], 1.8 mg/kg in data set [6] and 2.9 mg/kg in data set [29]. Also, the Activity entry in [26] is given as “Toxic”; in data set [33], “Toxic”; in data set [34], “Non-toxic”. Also, the outcome in [32] was inactive. Also, the AD50 in data set [12] was 0.477 mg/kg.
For `CN1CC[C@]23c4c5ccc(O)c4O[C@H]2[C@@H](O)C=C[C@H]3[C@H]1C5` [MORPHINE], the ED50 in data set [9] turned out to be 5.34 mg/kg; in [6], 1.2 mg/kg; in data set [29], 0.8 mg/kg. Further, in data set [12], the AD50 result is “inactive”.
For `C=CCN1CC[C@]23c4c5ccc(O)c4O[C@H]2[C@@H](O)C=C[C@H]3[C@H]1C5` [NALORPHINE], in [8], the result was inactive. The outcome in data set [1] and in data set [2] was Active. The results for the ED50 in data set [6] and in [29] were 36.3 mg/kg and 4.8 mg/kg, respectively.
